Where two headings read alike, the source gives them in different places.
How the values were obtained:
Axl [1] = molecular target: T1, Axl (Homo sapiens, UniProt P30530); assay: Cellular Axl inhibition ELISA (p-Axl, Gas6-induced) using H1299 cells; type: cell-based; parameters: especially H1299 cell endogenously expresses Axl; endogenous in cells; host or cells: H1299
T1 sequence (P30530 26-894): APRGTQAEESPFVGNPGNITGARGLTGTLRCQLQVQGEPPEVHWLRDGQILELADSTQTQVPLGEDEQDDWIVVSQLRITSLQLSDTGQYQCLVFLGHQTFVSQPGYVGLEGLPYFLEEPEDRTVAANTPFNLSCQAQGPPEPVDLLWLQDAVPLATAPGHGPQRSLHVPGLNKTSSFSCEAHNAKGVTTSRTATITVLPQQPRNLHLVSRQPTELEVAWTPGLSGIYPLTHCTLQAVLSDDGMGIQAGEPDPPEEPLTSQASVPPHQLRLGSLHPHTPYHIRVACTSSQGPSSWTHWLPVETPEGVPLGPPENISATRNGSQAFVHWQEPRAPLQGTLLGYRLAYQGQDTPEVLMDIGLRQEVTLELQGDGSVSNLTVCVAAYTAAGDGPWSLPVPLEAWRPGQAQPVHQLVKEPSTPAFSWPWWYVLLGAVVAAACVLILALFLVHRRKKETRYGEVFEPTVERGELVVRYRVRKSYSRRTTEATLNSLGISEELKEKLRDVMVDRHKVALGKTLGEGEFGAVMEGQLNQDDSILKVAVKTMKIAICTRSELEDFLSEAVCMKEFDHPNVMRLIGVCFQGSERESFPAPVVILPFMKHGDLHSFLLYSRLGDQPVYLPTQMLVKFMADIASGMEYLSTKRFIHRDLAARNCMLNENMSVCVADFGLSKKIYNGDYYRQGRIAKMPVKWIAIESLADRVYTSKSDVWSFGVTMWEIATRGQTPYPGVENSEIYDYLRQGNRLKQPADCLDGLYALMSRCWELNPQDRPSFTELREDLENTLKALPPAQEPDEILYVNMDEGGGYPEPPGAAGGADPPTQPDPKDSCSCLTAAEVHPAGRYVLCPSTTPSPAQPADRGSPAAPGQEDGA
Experimental: Axl is expressed in several of malignant cancer cells; especially H1299 cell endogenously expresses Axl; and an increased phosphorylation of Axl (p-Axl) can be observed, when induced by the Axl ligand, Ga6.
The H1299 cells should be 40-80% confluent in the cell culture flask. Then cells are washed with DPBS and trypsinized. After centrifugation, the cell pellet is re-suspended with pre-warmed culture medium (RPMI1640, 10% FBS) and cells are separated by pipetting 6 times up and down with a 10 ml serological pipette. The cell suspension was diluted to a final concentration of 1.25×10^5 cells/ml. Then 80 μl/well cell suspension is added to the plate. Cell-plates are incubated at 37° C./5% CO2 overnight. Compounds were dissolved by DMSO to 10 mM, and kept in nitrogen cabinet. Prepare the compounds stock plate, the reference compounds concentration starts at 0.50 mM (5 μl+95 μl DMSO), and the tested compounds start at 1.5 mM (6 μl+34 μl DMSO); Then make a 3-fold dilution series (10 doses) compounds. Then dilute compounds by the medium in the mid plate (2 μl compounds+198 μl medium). Transfer 20 μl diluted compounds from mid plate to the cell coated plate. Cell-plates are incubated at 37° C./5% CO2 for 24 h. Add 25 μl of Human Gas6 (1000 ng/ml) to 96-well plate; the final concentration of Human Gas6 is 200 ng/ml. Incubate the plates at 37° C./5% CO2 for 1 h. Remove medium and wash cells once with 300 ul/well ice-cold 1×PBS. Then remove PBS and add 100 μl/well ice-cold 1× Cell Lysis Buffer to 96-well plate. The plate is shaken for 40 min at 4° C. Then plates can be stored at −20° C. After the micro-wells strips have reached room temperature, break off the required number of micro-wells. Place the micro-wells in the strip holder. Unused micro-wells must be resealed and stored at 4° C. immediately. Add 60 μl of cell lysate to the appropriate well. Seal with tape and press firmly onto top of micro-wells. Incubate the plate at 37° C. for 2 h. Gently remove the tape and wash wells 5 times with 1× Wash Buffer, 300 μl each time for each well. Add 100 μl of reconstituted Detection Antibody (green color) to each well. Seal with tape and incubate the plate at 37° C. for 1 h. Repeat wash procedure. Add 100 μl of reconstituted HRP Linked secondary antibody to each well. Seal with tape and incubate the plate at 37° C. for 30 min. Repeat wash procedure. Add 100 μl of TMB Substrate to each well. Seal with tape and incubate the plate at 37° C. for 15 min. Add 100 μl of STOP Solution to each well. Shake gently for a few seconds. Read absorbance at 450 nm within 30 min after adding STOP Solution. Calculations and Formulas: The following calculations and formulas are used for data analysis using XL Fit software: The curve fitting was made using the Sigmoidal Dose-Response Model (Fit model, 205).

Axl [2] = molecular target: T1, Axl; assay: LanthaScreen Eu kinase binding assay for Axl
Experimental: LanthaScreen® Eu Kinase Binding assays were conducted at Life Technologies using the manufacturer's specifications for each kinase indicated.
Briefly, the principle behind this assay is based upon the binding and displacement of an Alexa Fluor 647-labeled tracer to the kinase of interest. Binding of the tracer to the kinase is detected using an EU-labeled anti-tag antibody. Simultaneous binding of both the tracer and antibody to the kinase gives rise to a FRET-signal. Binding of an inhibitor to the kinase competes for binding with the tracer, resulting in a loss of FRET-signal.
A given compound was diluted in DMSO to make a stock compound solution. The stock compound solution was serially diluted over eight steps in DMSO. Each diluted compound solution in DMSO was diluted in kinase buffer. Afterwards four kinds of working solution were prepared. First, Tracer-Working solution consists of Tracer 236 and Kinase Buffer. Second, Axl, Mer, Tyro3 or Met/anti-GST-AB-Working solution contained one of the kinases Axl, and Mer or anti-GST-AB (=anti glutathione-S-transferase antibody) in Kinase Buffer. Third, anti-GST-AB-Working solution was made with anti-GST-AB and Kinase Buffer. Last, in the DMSO-Working solution DMSO was added to Kinase Buffer to a final concentration to 3%. Each of the four kinds of working solutions were separately added to the assay plate and then incubated for 1 h at room temperature. After incubation, the assay plate was measured with respect to the FRET-Signal with the EnVision (Perkin Elmer) using the program LanthaHTRF-Assay. Data evaluation was done in the Quattro Workflow software. Kd (the equilibrium dissociation constant) values were calculated relative to vehicle (DMSO) control wells.

[3] = Elisa, comparison of compounds of present invention (**) vs compounds of WO2016/166250 (*), read-out: Cellular activity Axl (H1299) (IC50)
[4] = read-out: Cellular Axl activity by H1299 Elisa (IC50)
[5] = comparison of compounds of present invention (**) vs compounds of WO2016/166250 (*), read-out: Binding activity Axl (Kd)
[6] = read-out: Axl kinase binding activity (Kd)

SMILES	IC50 (Axl [1]; [3]) [nM]	IC50 (Axl [1]; [4]) [nM]	Kd (Axl [2]; [5]) [nM]	Kd (Axl [2]; [6]) [nM]
CCn1cc(OCC(F)(F)F)c(C(=O)Nc2ccc(Oc3ccnc4cc(OC)c(OC)cc34)cn2)n1 [Compound 4]	3.4	< 500	1.1	< 100
CCn1cc(OC(C)C)c(C(=O)Nc2ccc(Oc3ccnc4cc(OC)c(OC)cc34)cn2)n1 [Compound 6]		< 500		< 100
CCCn1cc(OCC(F)(F)F)c(C(=O)Nc2ccc(Oc3ccnc4cc(OC)c(OC)cc34)cn2)n1 [Compound 7]		< 500		< 100
CCn1cc(OCC2CCC2)c(C(=O)Nc2ccc(Oc3ccnc4cc(OC)c(OC)cc34)cn2)n1 [Compound 8]		< 500		< 100
COc1cc2nccc(Oc3ccc(NC(=O)c4nn(CCN(C)C)cc4OCC(F)(F)F)nc3)c2cc1OC [Compound 9]		< 500		< 100
COCCn1cc(OCC(F)(F)F)c(C(=O)Nc2ccc(Oc3ccnc4cc(OC)c(OC)cc34)cn2)n1 [Compound 10]	5.2	< 500	3.2	< 100
CNCCn1cc(OCC(F)(F)F)c(C(=O)Nc2ccc(Oc3ccnc4cc(OC)c(OC)cc34)cn2)n1 [Compound 11]		< 500		< 100
CCCn1cc(OCC(F)F)c(C(=O)Nc2ccc(Oc3ccnc4cc(OC)c(OC)cc34)cn2)n1 [Compound 12]		< 500		< 100
COc1cc2nccc(Oc3ccc(NC(=O)c4n[nH]cc4OCC(F)(F)F)nc3)c2cc1OC [Compound 16]	44	< 500	19	< 100
COc1cc2nccc(Oc3ccc(NC(=O)c4nn(CC5COC5)cc4OCC(F)(F)F)nc3)c2cc1OC [Compound 92]	3.9	< 500	1.4	< 100
COc1cc2nccc(Oc3ccc(NC(=O)c4nn(C5CCN(C)C5)cc4OCC(F)(F)F)cc3F)c2cc1OC (stereo not drawn) [Compound 96]		< 500		< 100
COc1cc2nccc(Oc3ccc(NC(=O)c4nn(CC5COC5)cc4OCC(F)(F)F)cc3F)c2cc1OC [Compound 97]		< 500		< 100
COc1cc2nccc(Oc3ccc(NC(=O)c4nn(C5CCN(C)C5)cc4OCC(F)(F)F)cc3C)c2cc1OC (stereo not drawn) [Compound 98]		≥ 1000		100 to 500
COc1cc2nccc(Oc3ccc(NC(=O)c4nn(CC5COC5)cc4OCC(F)(F)F)cc3C)c2cc1OC [Compound 99]		< 500		< 100
COc1cc2nccc(Oc3ccc(NC(=O)c4nn(C5CCN(C)C5)cc4OCC(F)(F)F)cc3)c2cc1OC (stereo not drawn) [Compound 100]		500 to 1000		< 100
COc1cc2nccc(Oc3ccc(NC(=O)c4nn(CC5COC5)cc4OCC(F)(F)F)cc3)c2cc1OC [Compound 101]		< 500		< 100

SMILES	IC50 (Axl [1]; [3]) [nM]	IC50 (Axl [1]; [4]) [nM]	Kd (Axl [2]; [5]) [nM]	Kd (Axl [2]; [6]) [nM]
COc1cc2nccc(Oc3ccc(NC(=O)c4nn(C)cc4OCC(F)(F)F)nn3)c2cc1OC [Compound 102]		≥ 1000		< 100
COc1cc2nccc(Oc3ccc(NC(=O)c4nn(CC(C)C)cc4OCC(F)(F)F)cn3)c2cc1OC [Compound 103]		< 500		< 100
COCCn1cc(OCC(F)(F)F)c(C(=O)Nc2ccc(Oc3ccnc4cc(OC)c(OC)cc34)nc2)n1 [Compound 104]		500 to 1000		< 100
CCCn1cc(OCCOC)c(C(=O)Nc2ccc(Oc3ccnc4cc(OC)c(OC)cc34)cn2)n1 [Compound 105]		< 500		< 100
CCCn1cc(OCC2COC2)c(C(=O)Nc2ccc(Oc3ccnc4cc(OC)c(OC)cc34)cn2)n1 [Compound 106]		< 500		< 100
COCCOc1cn(C2CC2)nc1C(=O)Nc1ccc(Oc2ccnc3cc(OC)c(OC)cc23)cn1 [Compound 107]		< 500		< 100
COc1cc2nccc(Oc3ccc(NC(=O)c4nn(C5CC5)cc4OC(C)C)nc3)c2cc1OC [Compound 108]		< 500		< 100
COc1cc2nccc(Oc3ccc(NC(=O)c4nn(C5CC5)cc4OCC(F)F)nc3)c2cc1OC [Compound 109]		< 500		< 100
COc1cc2nccc(Oc3ccc(NC(=O)c4nn(C5CC5)cc4OCCF)nc3)c2cc1OC [Compound 110]		< 500		< 100
COc1cc2nccc(Oc3ccc(NC(=O)c4nn(C5CC5)cc4OCC4CCC4)nc3)c2cc1OC [Compound 111]		< 500		< 100
COc1cc2nccc(Oc3ccc(NC(=O)c4nn(C5CC5)cc4OCC(F)(F)F)nn3)c2cc1OC [Compound 112]		< 500		< 100
COc1cc2nccc(Oc3ccc(NC(=O)c4nn(C5CC5)cc4OCCF)nn3)c2cc1OC [Compound 113]		< 500		< 100
CCCn1cc(OCC(F)(F)F)c(C(=O)Nc2ccc(Oc3ccnc4cc(OC)c(OC)cc34)c(C(F)(F)F)c2)n1 [Compound 114]		< 500		< 100
COc1cc2nccc(Oc3ccc(NC(=O)c4nn(CCOC5CC5)cc4OCC(F)(F)F)c(F)c3)c2cc1OC [Compound 115]		< 500		< 100
COc1cc2nccc(Oc3ccc(NC(=O)c4nn(CCOC5CC5)cc4OCC(F)(F)F)cc3F)c2cc1OC [Compound 116]		< 500		< 100
COc1cc2nccc(Oc3ccc(NC(=O)c4nn(CCOC5CC5)cc4OCC(F)(F)F)cc3C)c2cc1OC [Compound 117]		500 to 1000		< 100
